Measured values reported in US9988635B2, “Modulation of growth hormone receptor expression and insulin-like growth factor expression” (Antisense Therapeutics Limited, priority 2003, dated 2018).
In the oligonucleotide strings, read from the 5' end, every base follows the letter of its sugar. An asterisk marks phosphorothioate; unmarked linkages are phosphodiester. Other units and linkages are bracketed, terminal groups are in braces. A string of capitals states the bases alone. e = 2'-O-(2-methoxyethyl) (MOE); [5mC] = 5-methylcytosine; d = 2'-deoxy (DNA)

System: human growth hormone receptor mRNA
Experiment: Inhibition of human growth hormone receptor mRNA levels in MCF7 cells, quantitative real-time PCR
Assay type: cell-based
Set-up: concentration or dose not given beside the values
Details: averages from three experiments
Method: The human breast carcinoma cell line MCF-7 was obtained from the American Type Culture Collection (Manassas, Va.). MCF-7 cells were routinely cultured in DMEM low glucose (Gibco/Life Technologies, Gaithersburg, Md.) supplemented with 10% fetal calf serum (Gibco/Life Technologies, Gaithersburg, Md.). Cells were routinely passaged by trypsinization and dilution when they reached 90% confluence. Cells were seeded into 96-well plates (Falcon-Primaria #3872) at a density of 7000 cells/well for use in RT-PCR analysis.
When cells reached 65-75% confluency, they were treated with oligonucleotide. For cells grown in 96-well plates, wells were washed once with 100 μL OPTI-MEM™-1 reduced-serum medium (Invitrogen Corporation, Carlsbad, Calif.) and then treated with 130 μL of OPTI-MEM™-1 containing 3.75 μg/mL LIPOFECTIN™ (Invitrogen Corporation, Carlsbad, Calif.) and the desired concentration of oligonucleotide. Cells are treated and data are obtained in triplicate. After 4-7 hours of treatment at 37° C., the medium was replaced with fresh medium. Cells were harvested 16-24 hours after oligonucleotide treatment.
Total RNA was isolated using an RNEASY 96™ kit and buffers purchased from Qiagen Inc. (Valencia, Calif.) following the manufacturer's recommended procedures. Briefly, for cells grown on 96-well plates, growth medium was removed from the cells and each well was washed with 200 μL cold PBS. 150 μL Buffer RLT was added to each well and the plate vigorously agitated for 20 seconds. 150 μL of 70% ethanol was then added to each well and the contents mixed by pipetting three times up and down. The samples were then transferred to the RNEASY 96™ well plate attached to a QIAVAC™ manifold fitted with a waste collection tray and attached to a vacuum source. Vacuum was applied for 1 minute. 500 μL of Buffer RW1 was added to each well of the RNEASY 96™ plate and incubated for 15 minutes and the vacuum was again applied for 1 minute. An additional 500 μL of Buffer RW1 was added to each well of the RNEASY 96™ plate and the vacuum was applied for 2 minutes. 1 mL of Buffer RPE was then added to each well of the RNEASY 96™ plate and the vacuum applied for a period of 90 seconds. The Buffer RPE wash was then repeated and the vacuum was applied for an additional 3 minutes. The plate was then removed from the QIAVAC™ manifold and blotted dry on paper towels. The plate was then re-attached to the QIAVAC™ manifold fitted with a collection tube rack containing 1.2 mL collection tubes. RNA was then eluted by pipetting 140 μL of RNAse free water into each well, incubating 1 minute, and then applying the vacuum for 3 minutes.
Quantitation of growth hormone receptor mRNA levels was accomplished by real-time quantitative PCR using the ABI PRISM™ 7600, 7700, or 7900 Sequence Detection System (PE-Applied Biosystems, Foster City, Calif.) according to manufacturer's instructions. This is a closed-tube, non-gel-based, fluorescence detection system which allows high-throughput quantitation of polymerase chain reaction (PCR) products in real-time. As opposed to standard PCR in which amplification products are quantitated after the PCR is completed, products in real-time quantitative PCR are quantitated as they accumulate. This is accomplished by including in the PCR reaction an oligonucleotide probe that anneals specifically between the forward and reverse PCR primers, and contains two fluorescent dyes. A reporter dye (e.g., FAM or JOE, obtained from either PE-Applied Biosystems, Foster City, Calif., Operon Technologies Inc., Alameda, Calif. or Integrated DNA Technologies Inc., Coralville, Iowa) is attached to the 5′ end of the probe and a quencher dye (e.g., TAMRA, obtained from either PE-Applied Biosystems, Foster City, Calif., Operon Technologies Inc., Alameda, Calif. or Integrated DNA Technologies Inc., Coralville, Iowa) is attached to the 3′ end of the probe. When the probe and dyes are intact, reporter dye emission is quenched by the proximity of the 3′ quencher dye. […]

Substance | % INHIB of human growth hormone receptor mRNA levels
227481 (antisense eT*eG*eG*eT*eG*dA*dT*dG*dT*dA*dA*dA*dT*dG*dT*e[5mC]*e[5mC]*eT*e[5mC]*eT) [compound 227481] | 45%
272325 (antisense eA*eA*eG*eG*e[5mC]*dA*dT*dA*dA*dG*dA*dG*dA*dT*d[5mC]*eT*eG*e[5mC]*eT*eT) [compound 272325] | 66%
272326 (antisense eA*e[5mC]*eT*e[5mC]*eA*dG*d[5mC]*dT*d[5mC]*d[5mC]*dT*dT*d[5mC]*dA*dG*eT*eA*eG*eG*eA) [compound 272326] | 77%
272352 (antisense e[5mC]*e[5mC]*eA*eA*eA*dA*dT*dG*dA*d[5mC]*dA*dT*dT*d[5mC]*dT*eG*eA*eG*eA*e[5mC]) [compound 272352] | 77%
272313 (antisense eA*eT*eT*eG*e[5mC]*dG*dT*dG*dG*dT*dG*d[5mC]*dT*dT*d[5mC]*e[5mC]*e[5mC]*eA*eT*e[5mC]) [compound 272313] | 77%
272334 (antisense eA*eA*eG*eA*eA*dA*dG*dG*d[5mC]*dT*dA*dA*dG*dG*d[5mC]*eA*eT*eG*eA*eT) [compound 272334] | 61%
272308 (antisense eG*e[5mC]*eT*eG*eT*dA*dT*dG*dG*dG*dT*d[5mC]*d[5mC]*dT*dA*eG*eG*eT*eT*e[5mC]) [compound 272308] | 57%
272341 (antisense eG*eA*eG*eG*e[5mC]*dT*dA*dT*dA*dG*dA*dT*d[5mC]*dT*dT*eA*eT*e[5mC]*eT*e[5mC]) [compound 272341] | 65%
227502 (antisense eG*eA*eT*eT*eG*dA*dG*dG*dT*dA*dT*dT*dT*dA*dG*e[5mC]*eT*eA*eT*eT) [compound 227502] | 56%
272303 (antisense e[5mC]*e[5mC]*eA*eG*eA*dG*dA*dT*d[5mC]*d[5mC]*dA*dT*dA*d[5mC]*d[5mC]*eT*eG*eT*eA*eG) [compound 272303] | 55%
227501 (antisense eG*e[5mC]*eT*eA*eT*dT*dT*dT*dT*dG*dG*d[5mC]*dT*dA*dT*eA*eG*eA*eA*eA) [compound 227501] | 64%
272337 (antisense eA*eA*eA*e[5mC]*eA*dT*dA*dG*d[5mC]*d[5mC]*dA*dT*dT*d[5mC]*dA*eA*eT*eG*e[5mC]*eT) [compound 272337] | 39%
227490 (antisense eG*e[5mC]*eA*eT*eG*dA*dT*dT*dT*dT*dG*dT*dT*d[5mC]*dA*eG*eT*eT*eG*eG) [compound 227490] | 67%
227484 (antisense eT*eG*eG*eT*eA*dA*dG*dG*d[5mC]*dT*dT*dT*d[5mC]*dT*dG*eT*eG*eG*eT*eG) [compound 227484] | 63%
227453 (antisense e[5mC]*eA*eT*eA*eA*dT*d[5mC]*dA*dG*dG*dG*d[5mC]*dA*dT*dT*e[5mC]*eT*eT*eT*e[5mC]) [compound 227453] | 52%
272346 (antisense e[5mC]*eT*e[5mC]*eT*eT*dG*dG*dA*dG*dA*dA*dA*dA*d[5mC]*d[5mC]*eA*eT*eA*eG*e[5mC]) [compound 272346] | 67%
272336 (antisense e[5mC]*eA*eA*eT*e[5mC]*dA*d[5mC]*dT*dG*d[5mC]*dT*dA*d[5mC]*dT*dA*eA*eA*e[5mC]*eA*eG) [compound 272336] | 69%
227464 (antisense e[5mC]*e[5mC]*eT*eT*eT*dA*dA*dT*d[5mC]*dT*dT*dT*dG*dG*dA*eA*e[5mC]*eT*eG*eG) [compound 227464] | 58%

Substance | % INHIB of human growth hormone receptor mRNA levels
272348 (antisense e[5mC]*eA*e[5mC]*eA*eG*d[5mC]*dT*dT*dT*dG*dA*dA*dT*dT*dG*eA*eA*eT*eT*eA) [compound 272348] | 57%
272314 (antisense eT*eA*eG*eG*eG*dT*d[5mC]*d[5mC]*dA*dT*d[5mC]*dA*dT*dT*dT*eT*e[5mC]*e[5mC]*eA*eT) [compound 272314] | 56%
272327 (antisense eG*eG*eA*e[5mC]*eA*dT*d[5mC]*d[5mC]*d[5mC]*dT*dG*d[5mC]*d[5mC]*dT*dT*eA*eT*eT*e[5mC]*eT) [compound 272327] | 60%
272355 (antisense eT*eT*eG*eA*eG*dT*dG*dT*dT*d[5mC]*d[5mC]*dT*dA*dA*dA*eA*eT*eG*eA*eA) [compound 272355] | 24%
227482 (antisense eT*eT*e[5mC]*eT*eG*dT*dG*dG*dT*dG*dA*dT*dG*dT*dA*eA*eA*eT*eG*eT) [compound 227482] | 53%
227452 (antisense eT*e[5mC]*eA*eG*eG*dG*d[5mC]*dA*dT*dT*d[5mC]*dT*dT*dT*d[5mC]*e[5mC]*eA*eT*eT*e[5mC]) [compound 227452] | 79%
272359 (antisense eT*e[5mC]*e[5mC]*eA*eA*dA*dT*dA*dT*dT*d[5mC]*dT*dG*dG*dT*eA*e[5mC]*eT*eT*eT) [compound 272359] | 72%
272324 (antisense eT*eA*eT*eG*eT*d[5mC]*dA*dT*dT*dG*dG*d[5mC]*dA*dT*dT*eG*eA*eA*eA*eT) [compound 272324] | 53%
272353 (antisense eA*eT*eA*eA*eT*dG*dG*d[5mC]*dT*dT*dA*dT*dG*dT*dG*eG*e[5mC]*e[5mC]*eA*e[5mC]) [compound 272353] | 72%
272310 (antisense eT*eT*eT*e[5mC]*eA*dT*d[5mC]*d[5mC]*dA*d[5mC]*dT*dG*dT*dA*d[5mC]*e[5mC]*eA*e[5mC]*e[5mC]*eA) [compound 272310] | 76%
272345 (antisense e[5mC]*eA*eT*e[5mC]*eT*dA*dT*dT*dA*d[5mC]*dA*dA*dA*dT*dA*eA*e[5mC]*eA*eT*eG) [compound 272345] | 24%
272344 (antisense eA*e[5mC]*eA*e[5mC]*eT*d[5mC]*dA*dA*dT*dT*d[5mC]*dT*dA*dG*d[5mC]*eT*eT*eT*eT*e[5mC]) [compound 272344] | 60%
272342 (antisense eT*eA*eG*eT*eG*dA*dG*dA*dA*dA*dG*dA*dA*dA*dG*eT*eT*eT*e[5mC]*eT) [compound 272342] | 45%
272305 (antisense eT*eT*eG*eT*e[5mC]*dT*dT*dT*dA*dG*dG*d[5mC]*d[5mC]*dT*dG*eG*eA*eT*eT*eA) [compound 272305] | 68%
272354 (antisense eA*eG*eT*eT*eA*dT*dG*dT*dG*dA*d[5mC]*d[5mC]*d[5mC]*dT*dG*eA*eT*eT*eG*eA) [compound 272354] | 65%
272360 (antisense eT*eA*eT*eT*eA*dG*dT*dT*dA*d[5mC]*d[5mC]*dT*dT*dG*dA*eG*eG*eA*eG*eA) [compound 272360] | 0%
227468 (antisense eT*e[5mC]*eA*eT*e[5mC]*dA*dA*dT*dA*dT*d[5mC]*dT*dA*dG*d[5mC]*eT*e[5mC]*eA*eA*eT) [compound 227468] | 62%
272340 (antisense e[5mC]*eA*eT*e[5mC]*eA*dA*d[5mC]*d[5mC]*dA*dA*dG*dA*dT*dT*dT*eG*eG*eT*eG*eA) [compound 272340] | 69%
